Measured values published in EP0877020A1, “ACRIDONE DERIVATIVE” (Eisai Co., Ltd., priority 1995, dated 1997).
Like-named read-outs stand apart in the source and are kept apart here.

Legend:
RBL-2H3 cells = experiment: Repression of liberation of mediators (serotonin, histamine, arachidonic acid) from RBL-2H3 cells; format: cell-based, rat
Text: [Study on activity to repress the liberation of various mediators from rat basophilic leukemic cell strain (RBL-2H3) and activity to repress thyrosine kinase]
The cells of RBL-2H3, one species of rat cell line, carry out not only the liberation of histamine and serotonin but also the formation and liberation of prostaglandins, TNFα, etc., i.e. inflammatory mediators, owing to the specific antigen of the IgE antibody bound to the IgE receptor. In the present test system, therefore, the cells were marked with serotonin and arachidonic acid labeled in advance with [^3H] and cultured in the presence of a compound under test and in the absence thereof and the amounts of the mediators liberated in the culture medium were measured. Thus, the given compounds were tested for activity to repress the liberation of various mediators. The TNFα was determined by means of bioassay.

TNFα = experiment: Repression of formation and liberation of TNFα (bioassay); format: cell-based, rat; conditions: at the same concentration (12 µM)
phospholipase C = experiment: Repression of activation of phospholipase C, intracellular substrate of the thyrosine kinase; format: cell-based; conditions: at the same concentration (12 µM)
Jurkat cells (T-cells) = experiment: Thyrosine kinase selectivity in Jurkat cells (antigenic stimulus); format: cell-based
[1] = Rattus norvegicus, RBL-2H3 cells, [3H]-labelled serotonin, read-out: IC50 (µM) in liberation of serotonin from RBL-2H3 cells

With “3,4-Dimethyl-10-[3-(2-imidazoylmethyl)aminopropyl]-9 acridone [Example 32]” as the compound, how does the IC50 (RBL-2H3 cells; RBL-2H3 cells, [3H]-labelled serotonin, read-out: IC50 (µM) in liberation of serotonin from RBL-2H3 cells) read?
The IC50 was 0.6 µM.

`Cc1ccc2c(=O)c3ccccc3n(CCCNCc3ccccc3)c2c1C` [Example 19, 3,4-Dimethyl-10-(3-benzylaminopropyl)-9-acridone] was tested. Which IC50 (RBL-2H3 cells; [1]) did it give?
The IC50 was 3 µM.

With `Cc1ccc2c(=O)c3ccccc3n(CCCN)c2c1C` [Example 2, 3,4-Dimethyl-10-(3-aminopropyl)-9-acridone] as the compound, how does the IC50 (RBL-2H3 cells; Rattus norvegicus, RBL-2H3, RBL-2H3 cells, [3H]-labelled serotonin, read-out: IC50 (µM) in liberation of serotonin from RBL-2H3 cells) read?
Its IC50 is 6 µM.

`Cc1c(F)cc2c(=O)c3ccccc3n(CCCN)c2c1C` [Example 1, 2-Fluoro-3,4-dimethyl-10-(3-aminopropyl)-9-acridone] was tested. Which IC50 (RBL-2H3 cells; [1]) did it give?
Its IC50 is 1.7 µM.

With `Cc1ccc2c(=O)c3ccccc3n(CCCN)c2c1C.O=C(O)C(=O)O` [Example 3, 3,4-Dimethyl-10-(3-aminopropyl)-9-acridone oxalate] as the compound, how does the IC50 (RBL-2H3 cells; Rattus norvegicus, RBL-2H3, due to the antigenic stimulus, read-out: IC50 value, liberation of arachidonic acid from the RBL-2H3 cells) read?
The IC50 was 12 µM.

What about the IC50 (RBL-2H3 cells; Rattus norvegicus, RBL-2H3, due to the antigenic stimulus, read-out: IC50 value, liberation of histamine from the RBL-2H3 cells) of the same compound?
The IC50 was 12 µM.

What about the IC50 (RBL-2H3 cells; Rattus norvegicus, RBL-2H3, due to the antigenic stimulus, read-out: IC50 value, liberation of serotonin from the RBL-2H3 cells) of the same compound?
The IC50 was 12 µM.

What about the “formation and liberation of TNFα” value (TNFα) of the same compound?
Its value is “repressed”.

What about the “activation of phospholipase C” value (phospholipase C) of the same compound?
The value was “repressed”.

And the “activity to repress the antigenic stimulus in the Jurkat cells” value (Jurkat cells (T-cells); Jurkat cells)?
Its value is “absolutely no activity”.

And the “activity to repress such thyrosine kinases as p561ck and fyn” value (Jurkat cells (T-cells); concluded from the Jurkat cell test)?
The value was “no activity”.
